Measured values as given in patent publication US20230372318A1, “METHODS FOR TREATING A SUBJECT HAVING MULTIPLE SYSTEM ATROPHY” (Theravance Biopharma R&D IP, LLC, priority 2022, published 2023).

What was measured:
[1] = human, cited from earlier work
[2] = Rat oral pharmacokinetics, one-compartment PK/PD model; type: in vivo
Protocol: (§1) Adult male Sprague Dawley rats (Charles River) were housed under controlled laboratory conditions (temperature at 21±1° C.) on a 12:12 hour light-dark cycle. Animals were given free access to food and water upon arrival to the facility and animals were acclimatized to their holding room for at least 48 hours. Animals were fasted but allowed free access to water for 15-18 hours prior to dosing.
(§2) Rats (n=6/timepoint/dose level) received a single oral dose of 4-[2-(2,4,6-trifluorophenoxymethyl)phenyl]piperidine (0.3, 1, 5, 10, 30, and 60 mg/kg) and were euthanized by decapitation at specified time points (0.5, 2, 4, 6, and 8 hr for 5 mg/kg dose level; 2 hr for 0.3, 1, 10, 30, and 60 mg/kg dose levels) post-administration. Spinal cords were dissected for ex vivo transporter occupancy and PK assessments from the same animals. The spinal cord was harvested by hydraulic extrusion using phosphate-buffered saline, and the lumbar segment dissected and frozen on dry ice. The remaining spinal cord segments were collected and homogenized in water (25% w/w) for PK analysis. All samples were stored at −80° C. until analysis.
(§3) A kinetic radioligand binding assay was used to determine NET and SERT occupancy in rat spinal cord, as described previously in Bourdet et al., J. Pharm. Exp. Ther. (2012) 341:137-145. PK/PD parameters were estimated by a compartmental modeling approach (WinNonlin Version 5.0.1, Pharsight Corporation). One- and two-compartment PK models with first-order absorption and elimination were evaluated. The one-compartment model was selected. The pharmacodynamics model was an effect compartment Emax model linked directly to the central PK compartment (WinNonlin PK Model 3, PD Model 101). Selection of models was based upon best fit in terms of visual inspection, Akaike Information Criteria, and weighted residual sum of squares using the Gauss-Newton minimization method.

[3] = test system: plasma protein; test: Plasma protein binding, rat; type: in vitro ADME
[4] = target: T1, human recombinant SERT (Homo sapiens, UniProt P31645); test: Radioligand binding, [3H]-citalopram, HEK293-hSERT membranes; conditions: mean (95% confidence intervals)
T1 construct: expressed in transfected cells; host or cells: HEK293
Description: The in vitro pharmacology of ampreloxetine at human recombinant and rat native monoamine transporters was characterized as described in Smith et al., Inter. J. Neuropsychopharmcol. (2015) 1-11; and Tsuruda et al., J. Pharmacol. Toxicol. Meth. (2010) 61:192-204. See also, e.g., U.S. Pat. Nos. 8,304,432 B2 and 8,304,433 B2. Radioligands were sourced commercially (Perkin Elmer LifeSciences or GE Healthcare Life Sciences).
Briefly, membranes prepared from HEK293 (Human Embryonic Kidney 293) or CHO-K1 (Chinese Hamster Ovary-K1) cells stably transfected with human recombinant SERT (HEK293-hSERT), NET (HEK293-hNET), or DAT (CHO-K1-hDAT) were incubated for 1 hr at 22° C. in the absence, or presence, of 4-[2-(2,4,6-trifluorophenoxymethyl)phenyl]piperidine and [^3H]-citalopram (1.0 nM) for SERT, [^3H]-nisoxetine (2.0 nM) for NET, and [^3H]-WIN35428 (3.0 nM) for DAT in 50 mM Tris-HCl, 120 mM NaCl, 5 mM KCl, 0.025% BSA, 100 μM ascorbic acid, pH 7.4. Rat cortical membrane preparations were incubated with [^3H]-citalopram (2.0 nM) for SERT or [^3H]-nisoxetine (4.0 nM) for NET for 1 hr at 22° C. […] Binding and uptake assays were terminated by rapid filtration and radioactivity determined by liquid scintillation spectroscopy. […] Selectivity for NET (rounded to one significant figure) was determined as follows: […]

[5] = test system: norepinephrine (NE); test: Plasma norepinephrine levels in Examples 6 and 7; type: in vivo, human; conditions: for NE at End of Ex. 6/Start of Ex. 7: 4 weeks; for NE at End of Ex. 6/Start of Ex. 7 / NE on Day 29 of Ex. 7 Open Label: mean ± SD
Protocol: For pharmacodynamic assessments, blood samples for pharmacodynamic markers (including [dihydroxyphenylglycol] DHPG and NE) were collected after the subject had been seated for approximately 30 minutes.
Blood samples for pharmacodynamic markers ([dihydroxyphenylglycol] DHPG and NE) were collected at select study visits as defined in the Schedule of Study Procedures after the subject had been seated for 30 minutes. This was applicable to all consenting subjects.
Moreover, it has also been discovered that the supine norepinephrine level in a subject having multiple system atrophy continues to increase for at least about 8 weeks when the subject is treated daily with ampreloxetine as shown in Table 8:
Before treatment with ampreloxetine, supine norepinephrine (NE) levels in subjects with MSA are less than about 350 pg/mL. After about 8 weeks of treatment, supine norepinephrine levels are greater than about 500 pg/mL. Supine norepinephrine levels were determined using standard procedures (see, e.g., Goldstein et al., Annals of Neurology, 1989:26(4) 558-563; and Palma et al., Neurology, 2018:91(16) e1539-e1544).

[6] = target: T2, NET (Rattus norvegicus, UniProt Q63380); test: Ex vivo transporter occupancy in rat spinal cord (NET)
T2 construct: from tissue; host or cells: lumbar spinal cord of orally dosed male Sprague Dawley rats
Protocol: as §1, §2, §3

[7] = target: T3, SERT (Rattus norvegicus, UniProt P31652); test: Ex vivo transporter occupancy in rat spinal cord (SERT)
T3 construct: from tissue; host or cells: lumbar spinal cord of orally dosed male Sprague Dawley rats
Protocol: as §1, §2, §3

[8] = rat, single oral dose, effect compartment PK/PD model
[9] = rat, central PK compartment to effect compartment

T2 sequence (Q63380 1-617): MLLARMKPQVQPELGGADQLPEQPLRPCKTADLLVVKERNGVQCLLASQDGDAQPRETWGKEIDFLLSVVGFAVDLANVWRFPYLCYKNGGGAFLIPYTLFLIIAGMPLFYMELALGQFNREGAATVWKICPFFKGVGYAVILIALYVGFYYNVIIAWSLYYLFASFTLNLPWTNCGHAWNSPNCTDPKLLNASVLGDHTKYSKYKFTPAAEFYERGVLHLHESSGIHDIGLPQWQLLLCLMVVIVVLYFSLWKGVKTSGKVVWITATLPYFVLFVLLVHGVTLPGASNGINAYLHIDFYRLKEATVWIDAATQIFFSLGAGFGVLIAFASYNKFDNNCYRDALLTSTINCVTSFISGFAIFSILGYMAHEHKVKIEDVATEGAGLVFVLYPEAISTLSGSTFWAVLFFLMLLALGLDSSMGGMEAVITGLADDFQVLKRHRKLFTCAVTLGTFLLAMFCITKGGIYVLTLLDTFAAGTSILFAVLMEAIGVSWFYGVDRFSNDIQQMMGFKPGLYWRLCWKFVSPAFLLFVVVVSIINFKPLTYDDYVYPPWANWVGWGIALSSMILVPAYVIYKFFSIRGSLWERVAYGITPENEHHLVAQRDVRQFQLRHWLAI
T3 sequence (P31652 whole entry): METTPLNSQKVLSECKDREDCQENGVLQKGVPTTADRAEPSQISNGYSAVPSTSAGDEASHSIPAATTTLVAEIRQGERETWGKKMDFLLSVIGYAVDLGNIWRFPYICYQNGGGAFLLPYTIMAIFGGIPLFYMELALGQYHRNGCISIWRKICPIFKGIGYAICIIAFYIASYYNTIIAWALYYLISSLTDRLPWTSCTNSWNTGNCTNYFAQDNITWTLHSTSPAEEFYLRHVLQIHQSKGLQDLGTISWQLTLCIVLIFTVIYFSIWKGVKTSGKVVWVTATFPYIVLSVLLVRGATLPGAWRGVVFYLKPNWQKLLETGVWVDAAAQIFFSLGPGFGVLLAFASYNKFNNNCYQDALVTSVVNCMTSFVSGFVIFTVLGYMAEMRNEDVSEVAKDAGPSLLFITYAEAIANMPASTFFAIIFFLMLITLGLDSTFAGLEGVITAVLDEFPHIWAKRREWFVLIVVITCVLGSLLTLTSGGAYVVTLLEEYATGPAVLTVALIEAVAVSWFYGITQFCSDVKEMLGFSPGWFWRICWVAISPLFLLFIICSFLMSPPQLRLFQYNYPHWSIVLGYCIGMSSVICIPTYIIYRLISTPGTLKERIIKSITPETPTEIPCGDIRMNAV
T1 sequence (P31645 whole entry): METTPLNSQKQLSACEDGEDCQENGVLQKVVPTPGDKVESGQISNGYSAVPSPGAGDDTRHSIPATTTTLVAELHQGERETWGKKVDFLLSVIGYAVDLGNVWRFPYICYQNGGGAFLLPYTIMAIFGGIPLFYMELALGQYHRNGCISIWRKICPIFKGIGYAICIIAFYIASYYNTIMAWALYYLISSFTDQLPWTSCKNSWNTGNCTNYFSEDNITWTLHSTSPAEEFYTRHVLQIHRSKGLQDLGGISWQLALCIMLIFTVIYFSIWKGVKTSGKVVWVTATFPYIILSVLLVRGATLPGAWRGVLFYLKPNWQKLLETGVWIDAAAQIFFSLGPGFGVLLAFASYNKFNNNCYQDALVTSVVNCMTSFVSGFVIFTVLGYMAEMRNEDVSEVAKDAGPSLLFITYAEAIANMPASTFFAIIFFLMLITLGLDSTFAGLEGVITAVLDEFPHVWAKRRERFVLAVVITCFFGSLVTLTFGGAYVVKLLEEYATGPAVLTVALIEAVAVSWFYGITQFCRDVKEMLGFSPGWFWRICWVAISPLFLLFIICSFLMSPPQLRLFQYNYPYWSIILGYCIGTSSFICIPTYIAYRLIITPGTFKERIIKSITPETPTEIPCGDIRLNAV

Compound: Fc1cc(F)c(OCc2ccccc2C2CCNCC2)c(F)c1 [Ampreloxetine, 4-[2-(2,4,6-trifluorophenoxymethyl)phenyl]piperidine]
- Dose proportionality of Cmax and AUC ([1]; administered doses): linear with near dose proportional exposure
- Time to steady state ([1]; once daily dosing): ≤ 6 days
- V/F, volume of the central compartment divided by oral bioavailability [2]: 54.8 L/kg
- k01, first-order absorption rate constant [2]: 0.777 h⁻¹
- k10, elimination rate constant from the central compartment [2]: 0.319 h⁻¹
- Plasma protein binding [3]: 90.2%
- Transporter Binding: pKi, SERT [4]: 8.5 (8.5, 8.6)
- NE at End of Ex. 6/Start of Ex. 7 ([5]; MSA, Example 6 ampreloxetine 10 mg QD group, start of Ex. 6: 280 ± 138): 439 ± 250 pg/mL
- NE on Day 29 of Ex. 7 Open Label ([5]; MSA, Example 6 ampreloxetine 10 mg QD group, about 8 weeks): 539 ± 361 pg/mL
- NE on Day 29 of Ex. 7 Open Label ([5]; MSA, Example 6 placebo group, received ampreloxetine in open-label part, start of Ex. 7: 291 ± 173): 557 ± 298 pg/mL
- NE at End of Ex. 6/Start of Ex. 7 ([5]; PAF, Example 6 ampreloxetine 10 mg QD group, start of Ex. 6: 232 ± 110): 357 ± 204 pg/mL
- NE on Day 29 of Ex. 7 Open Label ([5]; PAF, Example 6 ampreloxetine 10 mg QD group, about 8 weeks): 455 ± 238 pg/mL
- NE on Day 29 of Ex. 7 Open Label ([5]; PAF, Example 6 placebo group, received ampreloxetine in open-label part, start of Ex. 7: 156 ± 82): 267 ± 87 pg/mL
- NE at End of Ex. 6/Start of Ex. 7 ([5]; PD, Example 6 ampreloxetine 10 mg QD group, start of Ex. 6: 340 ± 237): 407 ± 154 pg/mL
- NE on Day 29 of Ex. 7 Open Label ([5]; PD, Example 6 ampreloxetine 10 mg QD group, about 8 weeks): 552 ± 270 pg/mL
- NE on Day 29 of Ex. 7 Open Label ([5]; PD, Example 6 placebo group, received ampreloxetine in open-label part, start of Ex. 7: 340 ± 266): 443 ± 157 pg/mL
- Supine norepinephrine levels ([5]; subjects with MSA, after about 8 weeks of treatment, before treatment less than about 350): greater than 500 pg/mL
- EC50 ([6]; projected from rat EC50 accounting for species differences in plasma protein binding): 17.1 nM
- EC50, plasma concentration associated with 50% NET occupancy ([6]; rat spinal cord, oral dose): 0.0117 µg/mL
- Emax, maximal NET occupancy in spinal cord [6, 8]: 92.0 % occupancy
- keo, first-order equilibration rate constant, NET [6, 9]: 1.78 h⁻¹
- EC50, plasma concentration associated with 50% SERT occupancy ([7]; rat spinal cord, oral dose): 0.0508 µg/mL
- Emax, maximal SERT occupancy in spinal cord [7, 8]: 79.0 % occupancy
- keo, first-order equilibration rate constant, SERT [7, 9]: 11.0 h⁻¹
